Data published in US9278940B2, “Cyclic amines as bromodomain inhibitors” (Zenith Epigenetics Corp., priority 2012, dated 2016).
Where a name gives a salt, the structure may show the parent alone.

Experiments:
[1] = In vivo efficacy in rat collagen induced arthritis; details: female Lewis rats, collagen Day 1 and 7, dosed Day 11 to Day 17
Method: Rat collagen-induced arthritis is an experimental model of polyarthritis that has been widely used for preclinical testing of numerous anti-arthritic agents. Following administration of collagen, this model establishes a measurable polyarticular inflammation, marked cartilage destruction in association with pannus formation and mild to moderate bone resorption and periosteal bone proliferation. In this model, collagen was administered to female Lewis strain of rats on Day 1 and 7 of study and dosed with compounds from Day 11 to Day 17. Test compounds were evaluated to assess the potential to inhibit the inflammation (including paw swelling), cartilage destruction and bone resorption in arthritic rats, using a model in which the treatment is administered after the disease has been established.

hApoA-1 mRNA = assay: Up-regulation of hApoA-1 mRNA transcription in Huh7 cells; assay type: cell-based, human; design: key: Active: Compounds with an EC170 value less than 30 μM are deemed to be active.; Not Active: Compounds with an EC170 value less than 30 μM are deemed to be active; details: 48 hrs treatment, ApoA-I mRNA
In short: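 Huh7 cells plated 24 h before compound, then treated 48 h; mRNA isolated from lysates and ApoA-I quantified by one-step real-time PCR. Fold induction derived from Ct values relative to the matching DMSO control; EC170 reported as activity measure.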

Human AML MV-4-11 cells = assay: Inhibition of cell proliferation in MV4-11 cells; assay type: cell-based; design: key: Active: Compounds with an IC50 value less than 30 μM are deemed to be active.; Not Active: Compounds with an IC50 value less than 30 μM are deemed to be active; details: 72 hours
In short: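 Exponentially growing MV-4-11 cells were treated immediately with two-fold compound dilutions from 30 µM to 0.2 µM in triplicate for 72 h at 37 °C. Viability was read by MTS (CellTiter Aqueous One) absorbance at 490 nm after 3-4 h; % proliferation vs DMSO gave IC50.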

[2] = In vivo efficacy in experimental autoimmune encephalomyelitis (EAE) model of MS; design: species or system mouse; details: female C57Bl/6 mice, MOG35-55/CFA and pertussis toxin, 28 day preventative model
Description: Experimental autoimmune encephalomyelitis (EAE) is a T-cell-mediated autoimmune disease of the CNS which shares many clinical and histopathological features with human multiple sclerosis (MS). EAE is the most commonly used animal model of MS. […] Cytokines IL-23, IL-6 and IL-17, which are either critical for Th1 and Th17 differentiation or produced by these T cells, play a critical and non-redundant role in EAE development. Therefore, drugs targeting production of these cytokines are likely to have therapeutic potential in treatment of MS.
This study was conducted to assess the potential anti-inflammatory effect of test compounds to inhibit the inflammation and clinical EAE scores of a 28 day preventative mouse model. In this model, EAE was induced by MOG35-55/CFA immunization and pertussis toxin injection in female C57Bl/6 mice.

hMCP-1 mRNA = assay: Inhibition of hMCP-1 mRNA transcription in human PBMCs; assay type: cell-based; design: key: Active: Compounds with an IC50 value less than 30 μM are deemed to be active.; Not Active: Compounds with an IC50 value less than 30 μM are deemed to be active; details: Human Peripheral Blood Mononuclear Cells, 3 h
Method: In this example, hMCP-1 mRNA in human peripheral blood mononuclear cells was quantitated to measure the transcriptional inhibition of hMCP-1 when treated with a compound of the present disclosure.
Human Peripheral Blood Mononuclear Cells were plated (1.0×10^5 cells per well) in a 96-well plate in 45 μL RPMI-1640 containing 10% FBS and penicillin/streptomycin. The cells were treated with the test compound (45 μL at 2× concentration), and then the cells were incubated at 37° C. for 3 h before the cells were harvested. At time of harvest, cells were transferred to V-bottom plates and centrifuged at 800 rpm for 5 minutes. Spent media was removed and cell lysis solution (70 μL) was added the cells in each well and incubated for 5-10 min at room temperature, to allow for complete cell lysis and detachment. mRNA was then prepared using the “mRNA Catcher PLUS plate” (Invitrogen), according to the protocol supplied. After the last wash, as much wash buffer as possible was aspirated without allowing the wells to dry. […]
The eluted mRNA isolated was then used in a one-step quantitative real-time PCR reaction, using components of the Ultra Sense Kit together with Applied Biosystems primer-probe mixes. Real-time PCR data was analyzed, normalizing the Ct values for hMCP-1 to an internal control, prior to determining the fold induction of each unknown sample, relative to the control.

COc1cc(OC)c2c(=O)[nH]c(-c3cccc(N4CCN(C(C)C)CC4)n3)nc2c1 [Example 17, 2-(6-(4-Isopropylpiperazin-1-yl)pyridin-2-yl)-5,7-dimethoxyquinazolin-4(3H)-one Hydrochloride]
Active: In vivo activity [1] | ApoA-1 activity (EC170 < 30 μM) (hApoA-1 mRNA) | cell proliferation activity (IC50 < 30 μM) (Human AML MV-4-11 cells) | In vivo activity [2] | MCP-1 activity (IC50 < 30 μM) (hMCP-1 mRNA)
